This note sets out measurements from ChEMBL document CHEMBL4024791, “Identification of Morpholino-2H-pyrido[3,2-b][1,4]oxazin-3(4H)-ones as Nonsteroidal Mineralocorticoid Antagonists” (J Med Chem, 2018).

One data set deals with T1, Androgen receptor (Homo sapiens, UniProt P10275).
T1 sequence (P10275 whole entry): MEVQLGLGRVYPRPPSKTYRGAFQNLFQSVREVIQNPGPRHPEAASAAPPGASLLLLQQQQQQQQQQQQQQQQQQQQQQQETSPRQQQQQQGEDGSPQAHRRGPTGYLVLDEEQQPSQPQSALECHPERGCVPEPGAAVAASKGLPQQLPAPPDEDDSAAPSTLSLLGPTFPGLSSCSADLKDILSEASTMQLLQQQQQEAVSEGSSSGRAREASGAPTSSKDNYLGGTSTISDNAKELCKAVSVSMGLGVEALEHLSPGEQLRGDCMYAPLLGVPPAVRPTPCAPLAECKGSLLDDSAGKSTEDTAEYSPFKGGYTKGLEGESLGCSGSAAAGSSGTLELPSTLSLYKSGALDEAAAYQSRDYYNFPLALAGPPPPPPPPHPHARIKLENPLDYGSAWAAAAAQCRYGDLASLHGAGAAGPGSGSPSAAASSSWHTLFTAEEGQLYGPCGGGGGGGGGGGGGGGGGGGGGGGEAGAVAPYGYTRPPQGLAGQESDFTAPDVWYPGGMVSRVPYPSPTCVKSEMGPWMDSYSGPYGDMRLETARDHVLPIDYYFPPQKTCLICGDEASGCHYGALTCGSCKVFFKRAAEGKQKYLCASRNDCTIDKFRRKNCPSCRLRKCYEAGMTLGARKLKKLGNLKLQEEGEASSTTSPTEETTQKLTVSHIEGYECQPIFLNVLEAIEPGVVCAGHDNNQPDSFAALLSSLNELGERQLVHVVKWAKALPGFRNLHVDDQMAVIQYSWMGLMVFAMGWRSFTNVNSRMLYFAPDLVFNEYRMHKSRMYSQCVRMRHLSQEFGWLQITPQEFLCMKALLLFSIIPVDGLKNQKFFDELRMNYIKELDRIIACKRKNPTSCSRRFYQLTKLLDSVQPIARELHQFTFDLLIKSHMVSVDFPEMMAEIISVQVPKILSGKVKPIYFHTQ
The data set is described as follows: Antagonist activity at human GAL4-DBD fused AR ligand binding domain transfected in human Huh7 cells co-expressing GAL4-RE-Luc assessed as reduction in dihydrotestosterone-induced luciferase activity after 16 hrs by luciferase reporter gene assay. The data set is classed as cell-based. (In general: In a reporter assay the amount or activity of a reporter protein is the signal.)

Data set [1] is described as follows: Intrinsic clearance in rat liver microsomes.
A further data set has as its target CYP2D6 (Homo sapiens, UniProt P10635). The data set is described as follows: Inhibition of CYP2D6 (unknown origin) at 3 uM. The class given is ADME.
Another data set concerns the target CYP2C9 (Homo sapiens, UniProt P11712). The data set is described as follows: Inhibition of CYP2C9 (unknown origin) at 3 uM. The class given is ADME.
A short description of data set [2]: Distribution coefficient, log D of the compound. Particulars: octanol/water. The class given is physicochemical.
In data set [3] the target is T2, Mineralocorticoid receptor (Homo sapiens, UniProt P08235).
T2 sequence (P08235 whole entry): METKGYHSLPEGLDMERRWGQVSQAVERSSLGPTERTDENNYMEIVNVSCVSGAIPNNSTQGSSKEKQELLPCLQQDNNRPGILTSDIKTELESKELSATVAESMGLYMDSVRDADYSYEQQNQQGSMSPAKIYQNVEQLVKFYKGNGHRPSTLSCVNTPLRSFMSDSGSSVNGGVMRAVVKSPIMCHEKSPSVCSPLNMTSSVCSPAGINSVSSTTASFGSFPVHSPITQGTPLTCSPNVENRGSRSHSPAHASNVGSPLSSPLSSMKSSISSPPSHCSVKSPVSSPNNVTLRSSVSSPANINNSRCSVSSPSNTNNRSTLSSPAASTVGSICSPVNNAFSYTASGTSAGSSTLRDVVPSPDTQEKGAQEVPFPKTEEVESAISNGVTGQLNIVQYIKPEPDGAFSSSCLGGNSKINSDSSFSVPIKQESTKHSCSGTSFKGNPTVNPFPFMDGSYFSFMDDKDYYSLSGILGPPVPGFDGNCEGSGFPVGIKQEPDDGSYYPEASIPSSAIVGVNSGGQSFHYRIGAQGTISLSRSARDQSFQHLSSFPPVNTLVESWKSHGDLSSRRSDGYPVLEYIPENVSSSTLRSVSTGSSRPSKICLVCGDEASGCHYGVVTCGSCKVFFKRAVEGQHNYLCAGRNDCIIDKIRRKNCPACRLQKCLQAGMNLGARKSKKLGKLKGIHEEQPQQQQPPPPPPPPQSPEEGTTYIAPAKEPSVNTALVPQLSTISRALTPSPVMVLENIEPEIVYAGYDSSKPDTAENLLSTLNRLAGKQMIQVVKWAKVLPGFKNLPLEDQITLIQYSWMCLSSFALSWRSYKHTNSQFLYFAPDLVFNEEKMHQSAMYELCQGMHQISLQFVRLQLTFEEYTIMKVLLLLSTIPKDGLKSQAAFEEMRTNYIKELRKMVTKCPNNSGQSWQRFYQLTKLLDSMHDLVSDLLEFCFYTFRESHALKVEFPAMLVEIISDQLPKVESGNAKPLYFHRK
Description: Displacement of [3H]-aldosterone from human GST-tagged MR ligand binding domain after 4 hrs by liquid scintillation counting

Data set [4] can be described thus: AUC in Wistar rat at 500 mg/kg, po administered as single dose measured up to 8 hrs post dose by LC-MS analysis. The data set is classed as ADME, organism-based. Also on record: dose 500 mg/kg, time < 8 hr, route oral. Particulars: in vivo.
Data set [5] in a line: AUC in Wistar rat at 100 mg/kg, po administered as single dose measured up to 8 hrs post dose by LC-MS analysis. The data set is classed as ADME, organism-based. Also on record: dose 100 mg/kg, time < 8 hr, route oral. Particulars: in vivo.
Data set [6] can be described thus: Fraction unbound in rat plasma. The class given is ADME, cell-free.
Data set [7] is described as follows: Fraction unbound in dog plasma. The class given is ADME, cell-free, Canis lupus familiaris.
A short description of data set [8]: Fraction unbound in human plasma. The class given is ADME, cell-free.
Data set [9] can be described thus: Apparent permeability across apical to basolateral side in RRCK cells. The data set is classed as ADME, cell-based, Canis lupus familiaris, MDCKII-LE. The note with it: dog, MDCK.
The next data set relates to MDR1 (P-gp). Nature of the data set: Apparent permeability across basolateral to apical side in MDCK cells expressing human MDR1. The class given is ADME, cell-based, Canis lupus familiaris. The note with it: dog.
Data set [10] is described as follows: Volume of distribution at steady state in dog. The note with it: in vivo, read-out: Vdss. The data set is classed as ADME, Canis lupus familiaris.

Sequence of CYP2D6 (P10635 whole entry): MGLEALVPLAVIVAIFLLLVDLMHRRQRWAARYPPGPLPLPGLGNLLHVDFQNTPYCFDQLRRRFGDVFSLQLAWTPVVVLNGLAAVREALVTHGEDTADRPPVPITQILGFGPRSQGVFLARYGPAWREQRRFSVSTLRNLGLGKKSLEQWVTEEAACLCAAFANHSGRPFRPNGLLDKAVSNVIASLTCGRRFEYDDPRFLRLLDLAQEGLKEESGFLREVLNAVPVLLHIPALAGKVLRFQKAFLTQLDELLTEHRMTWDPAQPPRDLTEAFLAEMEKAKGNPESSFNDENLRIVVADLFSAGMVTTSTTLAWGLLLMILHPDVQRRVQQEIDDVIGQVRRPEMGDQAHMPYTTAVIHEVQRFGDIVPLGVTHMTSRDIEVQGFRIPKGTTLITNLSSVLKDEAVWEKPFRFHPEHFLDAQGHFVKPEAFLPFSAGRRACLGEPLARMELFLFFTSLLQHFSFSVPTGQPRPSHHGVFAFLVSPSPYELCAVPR
Sequence of CYP2C9 (P11712 whole entry): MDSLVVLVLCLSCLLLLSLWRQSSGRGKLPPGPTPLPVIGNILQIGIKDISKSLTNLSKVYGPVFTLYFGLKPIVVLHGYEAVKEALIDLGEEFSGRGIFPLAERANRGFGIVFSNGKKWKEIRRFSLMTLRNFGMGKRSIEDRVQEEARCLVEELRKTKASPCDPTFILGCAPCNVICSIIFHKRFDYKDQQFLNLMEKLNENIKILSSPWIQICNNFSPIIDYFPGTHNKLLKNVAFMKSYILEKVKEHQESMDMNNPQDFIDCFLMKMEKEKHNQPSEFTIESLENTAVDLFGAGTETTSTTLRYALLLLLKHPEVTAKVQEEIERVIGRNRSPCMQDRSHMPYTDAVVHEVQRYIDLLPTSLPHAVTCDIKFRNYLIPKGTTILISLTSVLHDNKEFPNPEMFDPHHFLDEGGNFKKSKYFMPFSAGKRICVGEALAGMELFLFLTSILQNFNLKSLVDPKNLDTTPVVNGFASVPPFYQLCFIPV

As usually defined, the IC50 is the point on the concentration scale where inhibition reaches its midpoint. As usually defined, the microsomal CLint is the rate of metabolic loss divided by the concentration. Read a low microsomal CLint as greater metabolic stability. In general, inhibition refers to the relative decrease from the control value, in per cent. What is called logD is the decadic logarithm of the distribution of all forms, ionised or not, between an organic phase and buffer at a given pH. Consider `O=C1COc2ccc(N3CCOC[C@H]3c3ccccc3)cc2N1`, for which the figures for the IC50 (at Androgen receptor; in [3]) were > 10 µM and 0.401 µM, respectively. The microsomal CLint in data set [1] was 223 µL/min/mg. The inhibition at 3 µM against CYP2D6 and on CYP2C9 was < 10% throughout. For the same compound, the logD in data set [2] was 2.7.

A word on the AUC: it is concentration integrated over time. For orientation: fraction unbound means free concentration divided by total concentration. High values mean weak binding, low ones extensive binding. By Papp A→B is commonly meant the apparent permeability from the apical to the basolateral side of a cell layer. A word on the Papp B→A: it is the apparent permeability from the basolateral to the apical side of a cell layer. `C[C@@H]1CN(c2ccc3c(n2)NC(=O)CO3)[C@H](c2ccccc2)CO1`: the AUC at 8 h in [4] is 13500 ng·h/mL; in data set [5], 9410 ng·h/mL. Further, the IC50 on Androgen receptor is > 10 µM. Further, the inhibition at 3 µM at CYP2D6 and on CYP2C9 was < 20% each time. Further, the pH-dependent lipophilicity (logD) in [2] was 2.8. The unbound share (fraction unbound) was found to be 0.15 in data set [6], 0.136 in data set [7] and 0.15 in [8]. Also, the Papp A→B in [9] was 45.9 ×10⁻⁶ cm/s. In the data set on MDR1 (P-gp), the basolateral-to-apical permeability (Papp B→A) came out at 24.7 ×10⁻⁶ cm/s. For the same compound, the Vd in [10] was 2.37 L/kg.
